In patent US20090203685A1, “ANTI-PROLIFERATIVE COMPOUNDS FROM A 3-ARYL-COUMARINE OR 3-ARYL-QUINOLIN-2-ONE AND USES THEREOF” (EOS (ETHICAL ONCOLOGY SCIENCE) S.P.A., priority 2006, published 2009):
pIC50: −log10 of the molar value.

Legend:
Type in all cases: cell-based
[1] = system: PC3; assay: Cell cycle analysis, PC3; details: 500 nM
Description: The cells are pelleted by gentle centrifugation 1200 rpm/5 min/4° C., then the supernatant is discarded and the cells are fixed with 1 mL of PBS/Ethanol 70% overnight at −20° C. The tubes are then centrifuged during 5 minutes at 1200 rpm and the supernatant is removed. The pellet is then re-suspended in 450 μL of PBS before 50 μL of RNAse (1 mg/mL) and 5 μL of propidium iodide (2 mg/mL) are added. Each tube is left 30 minutes at 37° C. and immediately analysed by flow cytometry after incubation.
A biparametric dot plot representation FL3 peak vs FL3 integer is plotted and the cells located on the diagonal are gated and analysed on a histogram representing the number of cells as a function of the FL3 peak.
To assess the relative position of cursors defining relative proportion of cells in subG1, G1, S or G2 phase of the cell cycle, G1 and G2 peaks are to be defined first:
The G1 peak is defined as the major peak in absence of treatment (generally X=200);
The G2 peak is centered on the value which is twice the value of the G1 peak (generally X=400).
Cells in subG1 phase are plotted in the part of the histogram preceding the G1 peak (generally X<200) and cells in S phase are enclosed in the area between the G1 and G2 peaks.
On this graphic, subG1, G1, S and G2/M phases of the cell cycle can thus be defined.
(§1) Viability and cell cycle profile, tested with compound (01), at 500 nM: […]

[2] = system: lung, prostate, breast, colon, melanoma, and myeloid tumor cells; assay: Inhibition of cell proliferation in vitro, panel of tumor cells (Example 3); details: Homo sapiens; range over tumor cell lines, printed as 50 nM to 1 μM; 72 h; read-out: IC50s of growth inhibition
Description: 2C Proliferation test ViaLight® HS High Sensitivity Cytotoxicity and Cell Proliferation BioAssay Kit
This protocol allows the determination of the cytostatic and cytotoxic activities of compounds to be tested on mammalian cells in culture and was carried out essentially according to the manufacturer's recommendations.
Cells are suspended in 15 mL of their respective media and are enumerated. They are then diluted in their media in order to obtain: • 2500 cells per 90 μL per well for MRC5 cells • 5000 cells per 90 μL per well for all other cell lines. Cells are then seeded in a 96 well plate, and incubated at least 4 hours in the incubator at 37° C. in 5% CO2. […]
Then, 100 μL of test buffer (test Vialight® test buffer) is added in each well and the control plate is incubated during 2 minutes. The luminescence is read in each well. The mean luminescence for each type of cells is called T0. […]
Then, 100 μL of test buffer (test Vialight® test buffer) is added in each well and the plates are incubated during 2 minutes. The luminescence is read in each well. For each type of cell, the mean luminescence in the well not containing the compound is called C72 and the mean luminescence in well containing a given concentration of a compound to be tested is called T72. […]

[3] = Viability (propidium iodide staining), NCI-H460; details: human, NCI-H460 cells (lung), NCI-H460 lung (NSCLC), 500 nM
Description: (§2) Propidium iodide (PI) cannot normally cross the cell membrane; it is thus excluded by viable cells but not from dying or dead cells, having a damaged membrane, where it intercalates into double-stranded nucleic acids and fluoresces when excited at 488 nm.
(§3) The cells are pelleted by gentle centrifugation 1200 rpm/5 min/4° C., then the supernatant is discarded and replaced by 1 mL of fresh medium. One hundred microliters of propidium iodide (40 μg/mL) are added to 400 μL of the cell suspension in a FACS tube and viability is measured by flow cytometry as the percentage of cells whose fluorescence recorded on FL-3 channel is comprised between 0 and 2.
as §1

[4] = Viability (propidium iodide staining), A375; details: human, A375 cells (melanoma), 500 nM
Description: as §2, §3, §1

[5] = Viability (propidium iodide staining), U937; details: human, U937 cells (myeloid), 500 nM
Description: as §2, §3, §1

With `COc1cc(NC(=S)NC(=O)/C=C/c2ccco2)ccc1-c1cc2ccccc2oc1=O` [Compound 01, (2E)-3-(2-furyl)-N-({[3-methoxy-4-(2-oxo-2H-chromen-3-yl)phenyl]amino}carbonothioyl)acrylamide] the “Cell cycle profile - 72 h” value [1] was “G2/M accumulation”, the pIC50 [2] was 6.00 to 7.30 and the viability at 48 h, 0.5 µM ([3]; 48 h) was 80%. It also gave a viability at 72 h, 0.5 µM ([3]; 72 h) of 80%, a viability at 48 h, 0.5 µM ([4]; 48 h) of 65% and a viability at 72 h, 0.5 µM ([4]; 72 h) of 35%. For the same compound, the viability at 48 h, 0.5 µM ([5]; 48 h) was 25% and the viability at 72 h, 0.5 µM ([5]; 72 h) was 6%.
